Measurements reported in patent US9975868B2, “7,8-dihydoxyflavone and 7,8-substituted flavone derivatives, compositions, and methods related thereto” (EMORY UNIVERSITY, priority 2012, dated 2018).
Entries after “also recorded” stand apart in the source; their conditions may differ.

Key:
[1] = in vivo PK study, plasma 7,8-DHF after oral administration; design: species or system mice
Procedure: Two months old mice were orally administrated 78 mg/kg of the R7, and mice were sacrificed at different time points (n=3), the plasma was then harvested and analyzed by HPLC/MS.
Derivatives with various moieties on the catechol group in 7,8-DHF were synthesized. These derivatives were monitored for intestine microsomal stability, liver microsomal stability and plasma stability.

[2] = system: mouse model of Alzheimer's disease; details: cited from earlier work
[3] = brain 7,8-DHF concentration after oral administration; format: in vivo, mice
TrkB = molecular target: T1, TrkB (Mus musculus, UniProt P15209); assay: TrkB signaling in mouse brain by immunoblotting after oral administration; format: in vivo; details: R7 78 mg/kg oral
T1 construct: from tissue; host or cells: mouse brain (lysates after oral dosing)
Procedure: R7 (78 mg/kg equal to about 50 mg/kg of 7,8-DHF) was administered orally. The mice were sacrificed at different intervals. The brain lysates were analyzed by immunobotting with various antibodies including p-TrkB 816, Total TrkB, p-Akt and total Akt.
The TrkB signaling in mouse brains was monitored from the in vivo PK study. […] The pharmacodynamic (PD) study fits well with the in vivo PK data, underscoring that the released 7,8-DHF from R7 triggers the long-lasting TrkB signalings in mouse brain.

[4] = chemical stability in pH 1.2 and 7.4 buffer; format: physicochemical
Procedure: Metabolism studies indicate that the catechol group is conjugated by glucuronidation, sulfation and methylation in liver, which leads to the poor oral bioavailability upon oral administration. […] Most of 7,8-DHF is conjugated and metabolized within 30 min. Derivatives with various moieties on the catechol group in 7,8-DHF were synthesized. These derivatives were monitored for intestine microsomal stability, liver microsomal stability and plasma stability. In addition, compounds with favorable chemical stability and Caco-2 permeability were examined.
R7 and R13 were chosen to analyze their in vivo PK profiles. The concentration of 7,8-DHF's in brain was examined at different time points after oral administrated 72.5 mg/kg, which is the molecular equivalent of 50 mg/kg of 7,8-DHF. In plasma, 7,8-DHF peaked at around 100 min for R13, whereas administration of the parent compound 7,8-DHF, occurred at 10 min. The oral bioavailability of R13 was around 10%.

T1 sequence (P15209 32-821): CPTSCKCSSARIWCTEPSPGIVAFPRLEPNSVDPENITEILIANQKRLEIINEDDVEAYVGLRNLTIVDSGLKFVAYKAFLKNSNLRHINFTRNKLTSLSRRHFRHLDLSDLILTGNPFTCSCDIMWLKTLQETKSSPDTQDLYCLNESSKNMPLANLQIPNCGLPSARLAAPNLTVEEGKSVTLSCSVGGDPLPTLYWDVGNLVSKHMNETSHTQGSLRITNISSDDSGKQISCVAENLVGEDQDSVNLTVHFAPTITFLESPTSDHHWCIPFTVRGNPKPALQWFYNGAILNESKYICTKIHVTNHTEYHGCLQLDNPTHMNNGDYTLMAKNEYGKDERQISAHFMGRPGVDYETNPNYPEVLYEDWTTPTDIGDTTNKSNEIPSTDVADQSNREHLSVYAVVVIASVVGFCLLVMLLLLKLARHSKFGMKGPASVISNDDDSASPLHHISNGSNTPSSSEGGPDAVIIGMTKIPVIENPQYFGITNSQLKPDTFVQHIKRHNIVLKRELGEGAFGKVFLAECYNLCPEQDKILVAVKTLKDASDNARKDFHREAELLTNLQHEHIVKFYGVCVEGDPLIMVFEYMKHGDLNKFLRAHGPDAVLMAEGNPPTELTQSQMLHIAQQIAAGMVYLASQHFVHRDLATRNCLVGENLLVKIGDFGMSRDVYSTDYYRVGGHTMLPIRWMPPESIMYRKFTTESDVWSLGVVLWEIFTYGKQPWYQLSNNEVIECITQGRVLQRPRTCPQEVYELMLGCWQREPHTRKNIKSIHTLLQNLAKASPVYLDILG

O=c1cc(-c2ccccc2)oc2c(O)c(O)ccc12 [7,8-DHF, 7,8-dihydroxyflavone, reference compound]
time within which most is conjugated and metabolized ([1]; C57BL6, mouse, in vivo): ≤ 30 min | bioavailability ([1]; C57BL6, mouse, in vivo, po): ~5% | memory deficits and BACE1 elevation [2]: reverses | 7,8-DHF detectability in brain ([3]; oral administration of parent compound): not detectable after 4 h

CN(C)C(=O)Oc1ccc2c(=O)cc(-c3ccccc3)oc2c1OC(=O)N(C)C [R7, 4-oxo-2-phenyl-4H-chromene-7,8-diyl bis(dimethylcarbamate)]
7,8-DHF plasma concentrations compared with parent compound ([1]; R7 78 mg/kg vs 7,8-DHF 50 mg/kg P.O.): higher than parent compound | 7,8-DHF detectable in plasma ([1]; at 8 h after oral R7): detectable | TrkB activation (p-TrkB) in mouse brain (TrkB): potently activated; also recorded: triggers TrkB activation | downstream p-Akt signaling activation in mouse brain (TrkB): potently activated; also recorded: downstream Akt signaling activation | chemical stability in buffer ([4]; pH 1.2): stable | chemical stability in buffer ([4]; pH 7.4): stable

CNC(=O)Oc1ccc2c(=O)cc(-c3ccccc3)oc2c1OC(=O)NC [R13, 4-oxo-2-phenyl-4H-chromene-7,8-diyl bis(methylcarbamate)]
7,8-DHF oral bioavailability and brain concentrations versus parent compound ([3]; FIG. 4, oral administration): improves | 7,8-DHF brain availability ([3]; oral 72.5 mg/kg): significantly elongated
